The target of the experiment is T1, monoacylglycerol lipase (MAGL) (Homo sapiens, UniProt Q99685).
T1 construct: gene MGLL
T1 sequence (Q99685 1-303): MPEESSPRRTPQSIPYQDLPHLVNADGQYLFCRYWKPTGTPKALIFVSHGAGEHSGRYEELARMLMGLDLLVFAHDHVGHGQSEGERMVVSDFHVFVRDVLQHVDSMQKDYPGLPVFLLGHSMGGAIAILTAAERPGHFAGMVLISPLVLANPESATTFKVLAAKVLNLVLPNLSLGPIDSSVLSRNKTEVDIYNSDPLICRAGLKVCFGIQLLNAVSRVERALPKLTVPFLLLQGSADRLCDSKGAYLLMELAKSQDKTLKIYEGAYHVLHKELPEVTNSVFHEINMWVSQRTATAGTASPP
The experiment in a line: Cayman Monoacylglycerol Lipase Inhibitor Screening Assay Kit, absorbance at […] nm, […] min preincubation; maximum inhibition about […]. The format is biochemical.

Broadly, the IC50 is the concentration at which inhibition is half-maximal.

On to `CN1c2ccccc2CC1C(=O)N1CCC(C(=O)Nc2cccc(Cl)c2)CC1` (stereo not shown) [M-18C, MAGLZ-18(c)], for which the concentration for half-maximal inhibition (IC50) is 663 nM.
